In patent publication US20030158540A1, “METHOD FOR DECREASING CATHETER-ASSOCIATED BACTERIURIA” (priority 2002, published 2003):

Columns and labels:
[1] = test system: catheter-associated urinary tract infections; details: 30 ml in drainage bags every eight hours, cited from earlier work
[2] = test system: types and levels of bacteria in the drainage bag; experiment: One-time instillation and drainage of irrigation solution into urinary drainage bags of long-term catheterized patients; urine cultures at 24-hour intervals; assay type: in vivo; details: for mean values for categories of colony count: score 3 = >100,000, 2 = 10,000 to 100,000, 1 = <10,000; for mean number of different types of organisms identified: about 50 ml one-time dose
Text: The type of irrigation solution used constituted the independent variable. The irrigation solutions were sterile hydrogen peroxide and sterile distilled vinegar (as used herein, containing about 5 wt. % acetic acid). […] Hydrogen peroxide decomposes rapidly when exposed to light or organic matter. Vinegar is a weak acetic acid solution derived from alcohol by the action of Acetobacter. Vinegar is distilled to remove color and other impurities, yielding what is referred to as white vinegar.
The dependent variables of the investigation were the types and levels of bacteria in the drainage bag, at twenty-four hour intervals of incubation, during treatment conditions. A certified laboratory was contracted to determine the germicidal values of the solutions tested. After twenty-four hours of incubation at about 37° C. […], bacterial growth was recorded at twenty-four hour intervals. Laboratory protocol for reporting types and number of bacteria provided results by identification of the organism by species present in the specimen.
For the study, a total of fifty-seven subjects were initially identified to participate in the study: fifteen from three hospitals and forty-two from ten skilled nursing facilities. […] Patients who were febrile, acutely ill, receiving antibiotic therapy, or with symptoms of urinary tract infection were excluded based on a review of the patient's chart. Patients with other methods of urinary drainage, such as condom catheter drainage, superpubic catheterization, and intermittent urethral catheterization, were not considered. Moreover, because of the chance of cross-infection, infected and uninfected patients with indwelling urinary catheters who shared the same room or adjacent beds were not considered.
The patients were randomly assigned to three experimental groups: one group was designated a control group whose catheter drainage bags were not treated with an irrigation solution; the drainage bags of the remaining groups were treated with one of the two irrigation solutions investigated. The methods of data collection were verified prior to the commencement of the study by use of a literature review and institutional review board pre approval. All urine collection was made between 5:00 A.M. and 6:30 A.M. The urine specimens were promptly refrigerated and transported to the microbiology laboratory. Organisms and colony counts were identified by standard laboratory methods.
The research approach carried out in the study comprised four primary steps: (1) collection of urine from the catheter drainage bags for baseline cultures; (2) instillation of the irrigation solution into the drainage bags; (3) collection of urine from the drainage bags at 24-hour intervals; and (4) evaluation of the results of bacterial growth at 24-hour intervals. The initial concentration of bacteria in each drainage bag was determined prior to instillation of the irrigation solution. With regard to the patients in the groups whose drainage bags were treated with hydrogen peroxide or distilled vinegar, the drainage bags (approximate filled volume of about 50 to 150 ml) were emptied of any residual urine, after which the distal segment of the Foley catheter was clamped to avoid any possibility of reagent reflux into the patient's bladder.

[3] = test system: bacteriuria / bag contamination; details: cited from earlier work
[4] = test system: bacterial contamination of the drainage bag; details: 30 ml every eight hours; thirty-one patients; cited from earlier work
[5] = test system: urinary bag bacterial growth; details: daily decontamination with dilute bleach (5.25%); cited from earlier work
[6] = forty-eight hours after instillation

Compound	catheter-associated urinary tract infections ([1]; P<0.05)	bags from which bacteria continued to be isolated [1]	mean values for categories of colony count ([2]; 00 h (baseline))	mean number of different types of organisms identified ([2]; 00 h (baseline, before instillation))	mean number of different types of organisms identified ([2]; 24 h)	mean values for categories of colony count ([2]; 24 h)	mean number of different types of organisms identified ([2]; 48 h)	mean values for categories of colony count ([2]; 48 h)	mean number of different types of organisms identified ([2]; 72 h)	mean values for categories of colony count ([2]; 72 h)	colonies of bacteria compared to the control group (post hoc analysis) [2, 6]	types of organisms compared to the control group (post hoc analysis) [2, 6]	rate of bacteriuria ([3]; instillation of H2O2, N=238)	rate of bag contamination ([3]; peroxide group, control group 34%, P≦0.05) [%]	bacterial contamination of the drainage bag [4]	bag cultures [5] [CFU's/ml]	decrease in urinary bag bacterial growth [5] [%]
OO [Hydrogen Peroxide, Hydrogen peroxide]	significant reduction	five of thirty	6.2	2.6	2.3	5.6	2.1	5.3	1.5	3.8	no statistically significant difference	no statistically significant difference	no reduction	17	could be eliminated effectively		
OCl [sodium hypochlorite]																≤ 50	76.5
